In data set [1] the test system is tracheobronchiales oder sinubronchiales Syndrom. The note with it: inhalate in 1 %iger Emser Sole; patients who also had rhinitis needed additional cold remedies; cited from earlier work.
The nature of the next data set: physchem. The class given is physicochemical. To be noted: water. As to the method: Bei Anwendung von Ambroxol muß die Dosis 50 bis 100 mg betragen. Berücksichtigt man, daß Ambroxol nur in 1 %iger Lösung stabil ist und alle konzentrierteren Lösungen bei […] Temperaturen zur […], so zeigt dies, […] in der Praxis in einer Dosis von 5 bis 10 ml zur Anwendung kommen müßte, die völlig unrealistisch ist.

In another data set the test system is Kaninchenauge. To be noted: 1%-ige Ambroxol-HCL-Lösung; cited from earlier work.

Where a name gives a salt, the structure may show the parent alone. Bounds are passed on as bounds.

The solubility is the concentration that dissolves in the medium under given conditions. A low value points to little dissolved substance. `Nc1c(Br)cc(Br)cc1CN[C@H]1CC[C@H](O)CC1` [Ambroxol, trans-4-[(2-Amino-3,5-dibrom-benzyl)-amino]cyclohexanol]: the “Wirksamkeit bei Patienten mit tracheobronchialem oder sinubronchialem Syndrom” value in data set [1] was “wirksam”. Also, the solubility in the data set “physchem” was no more than 10000 µg/mL. With `Nc1c(Br)cc(Br)cc1CN[C@H]1CC[C@H](O)CC1` [Ambroxol-HCL], the “Reizung des Kaninchenauges” value in the data set with Kaninchenauge was “keine Reizung”.

The record behind these values is EP0240907A2, “Use of trans-4-[(2-amino-3,5-dibromobenzyl)amino]cyclohexanol” (priority 1986, dated 1987).
